Laboratory results as given in patent US20180318199A1, “Pharmaceutical Composition Having Anti-Aging Properties against High-Glucose” (TAIWAN LEADER BIOTECH CORP., priority 2017, published 2018).

Experiments:
HO-1 and NQO-1 = assay: Western blot of HO-1 and NQO-1 in HNDFs; type: cell-based, human; conditions: ANM 10 μM or NAC 100 μM, 24 h; for HO-1 protein expression: NG and HG groups
Procedure: In FIG. 5D, to determine the protein expression levels of HO-1, NQO-1 and Nrf2, HNDFs are incubated with ANM (10 μM) or NAC (100 μM) for 24 h. Total cell lysates are prepared and subjected to western blot analysis to monitor the expression levels of HO-1, NQO-1 and Nrf2.
(§1) Cells are lysed by either RIPA lysis buffer or nuclear and cytoplasmic extraction reagents (Thermo Fisher Scientific). Protein concentrations are determined by Bio-Rad protein assay reagent (Bio-Rad Laboratories, Hercules, Calif.). Equal amounts of protein samples (60 μg) are separated by 7-12% SDS-PAGE and the separated proteins are transferred onto polyvinylidene […] (PVDC) membrane overnight. The transferred protein membranes are blocked with 5% non-fat dried milk for 30 min, followed by incubation with specific primary antibodies overnight, and either horseradish peroxidase-conjugated goat anti-rabbit or anti-mouse antibodies for 2 h. The blots are detected using VL Chemi-Smart 3000 (Viogene Biotek, Sunnyvale, Calif.) with the enhanced chemiluminescence (ECL) western blotting reagent (Millipore, Billerica, Mass.).

Keap-1 = Keap-1 protein level and ubiquitination (western blot, immunoprecipitation) in HNDFs; type: cell-based, human; conditions: for ubiquitination of total protein: HNDFs treated with ANM or NAC
Procedure: Under normal physiological condition, Nrf2 is sequestered in the cytoplasm, where it associated with Keap-1, an actin-binding protein. Upon chemical treatment or oxidative stress conditions, the steady-state levels of Keap-1 is rapidly degraded through the ubiquitin-dependent proteasome pathway, which eventually causes Nrf2 accumulation and transcriptional activity. […] In FIG. 5H, the Keap-1 protein expression level is determined by western blotting.
In FIG. 5I, effect of ANM on ubiquitination of Keap-1 is examined. Equivalent amount of proteins are immune-precipitated with Keap-1 antibody and visualized by western blotting with ubiquitin antibody. […] Results are expressed as mean±S.E.M of three independent experiments. Statistical significance is set at ^ϕP<0.05 as compared to NG vs. HG or ANM alone or NAC alone and *P<0.05 as compared to HG vs. samples. […] Therefore, it is further examined whether AKT and ERK1/2 have any influence on Keap-1 ubiquitination. Cells are co-incubated with AKT, p38MAPK, JNK and ERK1/2 inhibitors in the presence of […]; and the Keap-1 ubiquitination is examined.
HNDFs are seeded at a density of 1×10^6 cells/dish in 10 cm dish and treated with ANM or pharmacological inhibitors of AKT, JNK/SAPK, p38 MAPK and ERK1/2 in the presence or absence of HG. After treatment, cells are lysed with RIPA buffer containing protease inhibitor cocktail. The lysates are homogenized and centrifuged at 16,000×g for 15 min at 4° C. The supernatant is collected and the protein concentration is determined by Bio-Rad protein assay reagent. Total protein extract containing 500 μg of proteins are precleared with protein-A agarose beads for 1 h and incubated with 3 μg of anti-Keap-1 antibody for overnight at 4° C. with gently shake. After overnight incubation, centrifuged at 2000×g for 5 min at 4° C., the supernatant is discarded and the reaming pellet is washed with RIPA buffer. Immunoprecipitated complexes are mixed with SDS sample buffer and denatured at 94° C. for 5 min. Equal amount of protein samples are subjected to western blotting. The ubiquitinated Keap-1 protein levels are determined by ubiquitin antibody.

wild-type C. elegans = assay: C. elegans lifespan assay; type: in vivo, Caenorhabditis elegans
Procedure: It has been well documented that high glucose levels decrease the life span of C. elegans by increasing ROS formation and advance glycation end-product modification of mitochondrial proteins. Therefore, it is further investigated whether ANM has a protective effect against hyperglycemia-induced oxidative stress as well as anti-aging effects. Worms are incubated with high glucose (50 mM) with or without ANM […], and controlled for life span evaluation. In FIG. 8B, effect of ANM on the life span of C. elegans under hyperglycemic condition is examined. Age synchronized L1 larvae are transfected to NGM plates which contain HG (50 mM) with or without ANM (10 μM) and worms are developed to adulthood. The survival rate is scored everyday and is expressed as a percentage of survival. […] Results are expressed as mean±S.E.M of three independent experiments. Statistical significance is set at ^ϕP<0.05 as compared to control vs. HG, *P<0.05 as compared to HG vs. HG+sample and ̂P<0.05 as compared to control vs. samples.
Control worms are treated with 0.01% DMSO. All worms are kept 20° C. to develop adulthood. After 6 days, worms are transferred to plates containing glucose are applicable. Surviving and dead animals are counted daily (starting from the first day of adulthood) until all worms had died. […] Worms suffering from internal hatch (a defect in egg-laying) and those that crawled off the NGM plate are not included in the life-span assay. During the reproductive period, adult worms are transferred to fresh NGM plates every day during the progeny production period and then every other day thereafter. Life span assay result is obtained from three independent assays.

HUVECs = assay: SA-β-gal senescence assay in HUVECs; type: cell-based, human; conditions: ANM 10 μM + HG 30 mM, 48 h; HG alone 6.38-fold
Procedure: Please refer to FIG. 9A˜FIG. 9H, which are views showing HG-induced senescence prevented by ANM in human umbilical vein endothelial cells (HUVECs). As shown in the figures, to further delineate the protective effects of ANM on another cell system, experiments are designed to investigate the protective effect of ANM on HUVECs incubated in media containing either NG or HG alone or with ANM for 48 h. Cell viability is measured by MTT assay. […] Cell viability is determined by MTT assay. Percentage of viable cells are normalized with control cells (NG). […] In addition, in FIG. 9B, cellular senescence is determined by SA-β-gal activity assay. […] In addition, in FIG. 9C and FIG. 9D, total cell lysate is extracted and senescence-associated marker proteins including p16^INK4A, p21^CIP1 total and acetylated p53 and FoxO1 are measured by western blot analysis.
Senescence-associated β-galactosidase (SA-β-gal) activity is determined in formaldehyde-fixed histochemical staining kit according to the manufacturer's instructions (Cell Signaling Technology, Danvers, Calif.). Briefly, cells are grown in 6-well plates at a density of 5×10^4 cells/well, and incubated with HG or test samples for 48 h (HUVECs) or 72 h (HNDFs). […]

SIRT-1 = assay: Immunoblotting of SIRT-1 and phos-SIRT-1 in HUVECs; type: cell-based, human; conditions: ANM or RES + HG
Procedure: To determine whether ANM regulates HUVEC senescence through a SIRT-1-mediated pathway, protein expression levels of SIRT-1 are examined. In FIG. 9E, protein expression levels of SIRT-1 and phos-SIRT-1 are monitored by immunoblotting.
as §1

Compound	NQO-1 protein expression (HO-1 and NQO-1)	HO-1 protein expression (HO-1 and NQO-1)	ubiquitination of Keap-1, co-incubated with HG (Keap-1; ANM + HG)	Keap-1 protein level (Keap-1; ANM alone or in HG-induced condition)	ubiquitination of Keap-1 (Keap-1; ANM alone, immunoprecipitation with anti-Keap-1)	ubiquitination of total protein (Keap-1)	life span of C. elegans under normal condition (wild-type C. elegans; ANM 10 μM or RES 438 μM vs control)	life span of C. elegans under hyperglycemic condition (wild-type C. elegans; HG 50 mM with ANM 10 μM vs HG alone)	SA-β-gal staining in HUVECs (HUVECs)	HG-induced SIRT-1 phosphorylation at Ser47 in HUVECs (SIRT-1)	SIRT-1 expression in HUVECs under HG (SIRT-1)
C=C(CCC(C)C1CCC2C3=C(C(=O)C(O)C21C)C1(C)CCC(O)C(C)C1CC3)C(C)C(=O)O (centres unmarked) [ANM, antcin M]	unaffected	significantly increase	further increase	significantly decreased	remarkable increase	significant increase	significantly (P<0.026) prolongs	significant (P<0.0001) increase	1.36 fold	significantly blocks	significantly rescues
CC(=O)N[C@@H](CS)C(=O)O [NAC, N-acetylcysteine, reference compound]	unaffected	significantly increase				significant increase					
